Laboratory results as given in ChEMBL document CHEMBL1201862, “PubChem BioAssay data set” (2004).
The source made the active and inactive calls.

Experiments:
[1] = target: Genome polyprotein (dengue virus type 2, UniProt P29990); assay: Dengue-2 NS5 methyltransferase inhibitors, primary screen, biochemical, confirmation dose response (AID 588689); type: functional
[2] = target: T1, Orexin receptor type 2 (Homo sapiens, UniProt O43614); assay: Counterscreen assay for antagonists of the orexin 1 receptor (OX1R; HCRTR1): Fluorescence-based cell-based dose response assay for antagonists of the orexin 2 receptor (OX2R; HCRTR2), run by assay provider.; type: functional
T1 sequence (O43614 whole entry): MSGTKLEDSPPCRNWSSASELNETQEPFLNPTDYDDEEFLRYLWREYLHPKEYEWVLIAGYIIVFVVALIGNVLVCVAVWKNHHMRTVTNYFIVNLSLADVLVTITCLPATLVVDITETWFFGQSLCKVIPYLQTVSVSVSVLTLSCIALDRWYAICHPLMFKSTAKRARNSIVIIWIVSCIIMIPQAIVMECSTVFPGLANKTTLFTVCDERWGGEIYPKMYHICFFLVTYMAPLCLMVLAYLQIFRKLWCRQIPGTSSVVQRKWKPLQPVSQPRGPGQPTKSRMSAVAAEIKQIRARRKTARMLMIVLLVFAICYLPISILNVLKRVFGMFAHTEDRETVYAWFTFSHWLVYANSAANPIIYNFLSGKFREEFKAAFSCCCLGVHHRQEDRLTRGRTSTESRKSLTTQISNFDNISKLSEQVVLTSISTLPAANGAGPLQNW

[3] = (§1) Counterscreen for antagonists of the orexin 1 receptor (OX1R; HCRTR1): Fluorescence-based cell-based high throughput dose response assay to identify antagonists of the parental CHO cell line. [Related pubchem assays (depositor defined):AID434989, AID435008, AID463079, AID485270, AID492963, AID492964, AID492965, AID493232, AID504699, AID504701]; type: functional
[4] = target: T2, Orexin/Hypocretin receptor type 1 (Homo sapiens, UniProt O43613); assay: Homogeneous Time Resolved Fluorescence (HTRF)-based cell-based high throughput dose response assay for antagonists of the orexin 1 receptor (OX1R; HCRTR1). [Related pubchem assays (depositor defined):AID434989, AID435008, AID463079, AID485270, AID492963, AID492964, AID492965, AID493232, AID504717, AID504718]; type: functional
T2 sequence (O43613 whole entry): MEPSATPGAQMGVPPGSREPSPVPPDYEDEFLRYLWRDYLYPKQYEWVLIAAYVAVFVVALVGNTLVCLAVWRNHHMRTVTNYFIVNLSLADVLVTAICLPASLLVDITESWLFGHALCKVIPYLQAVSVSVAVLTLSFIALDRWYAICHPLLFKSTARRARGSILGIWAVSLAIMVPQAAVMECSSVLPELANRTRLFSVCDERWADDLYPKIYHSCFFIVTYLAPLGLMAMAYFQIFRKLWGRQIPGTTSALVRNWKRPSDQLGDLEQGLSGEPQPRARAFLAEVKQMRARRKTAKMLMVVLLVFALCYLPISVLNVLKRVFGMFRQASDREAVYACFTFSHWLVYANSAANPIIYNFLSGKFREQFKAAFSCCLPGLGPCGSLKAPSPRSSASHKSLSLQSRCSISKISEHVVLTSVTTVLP

[5] = target: T2, Orexin/Hypocretin receptor type 1; assay: Fluorescence-based cell-based high throughput dose response assay for antagonists of the orexin 1 receptor (OX1R; HCRTR1). [Related pubchem assays (depositor defined):AID434989, AID435008, AID463079, AID485270, AID492963, AID492964, AID492965, AID493232, AID504717, AID504718]; type: functional
[6] = system: CHO-K1; assay: as §1, with “Homogeneous time resolved fluorescence (HTRF)-based” for “Fluorescence-based”, “cell-based” for “cell-based high throughput”, “CHO-K1” for “CHO”; type: functional; conditions: Cricetulus griseus;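 further: potency for inhibition of ATP-stimulated IP1 production as antagonists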
[7] = target: T1, Orexin receptor type 2; assay: Counterscreen assay for antagonists of the orexin 1 receptor (OX1R; HCRTR1): Homogeneous Time Resolved Fluorescence (HTRF)-based cell-based dose response assay for antagonists of the orexin 2 receptor (OX2R; HCRTR2), run by assay provider.; type: functional
[8] = inhibitors of intracellular T. cruzi replication, confirmation, NIH3T3 host cells, beta-gal luminescence (AID 2044); type: functional, cell-based;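 further: intracellular parasites grown in NIH/3T3 mouse fibroblasts as host cells; luminescent beta-galactosidase reporter signal from transgenic T. cruzi replicating inside host cells; inhibitors lower the luminescence signal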
[9] = target: Heat shock protein HSP 90-alpha (Homo sapiens, UniProt P07900); type: functional, organism-based
[10] = cytotoxicity toward NIH3T3 fibroblasts, dose response, counter-screen, cell-based, ATP luminescence, mouse fibroblasts (AID 2010); type: functional;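 further: cells exposed to compound for about 90 hours before reading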
[11] = target: Glucose-6-phosphate 1-dehydrogenase (Homo sapiens, UniProt P11413); assay: human G6PD enzyme inhibitors, dose response, selectivity assay for P. falciparum G6PD inhibitor project, biochemical, fluorescence (AID 504792); type: functional
Glucose-6-phosphate 1-dehydrogenase, sequence (P11413 whole entry): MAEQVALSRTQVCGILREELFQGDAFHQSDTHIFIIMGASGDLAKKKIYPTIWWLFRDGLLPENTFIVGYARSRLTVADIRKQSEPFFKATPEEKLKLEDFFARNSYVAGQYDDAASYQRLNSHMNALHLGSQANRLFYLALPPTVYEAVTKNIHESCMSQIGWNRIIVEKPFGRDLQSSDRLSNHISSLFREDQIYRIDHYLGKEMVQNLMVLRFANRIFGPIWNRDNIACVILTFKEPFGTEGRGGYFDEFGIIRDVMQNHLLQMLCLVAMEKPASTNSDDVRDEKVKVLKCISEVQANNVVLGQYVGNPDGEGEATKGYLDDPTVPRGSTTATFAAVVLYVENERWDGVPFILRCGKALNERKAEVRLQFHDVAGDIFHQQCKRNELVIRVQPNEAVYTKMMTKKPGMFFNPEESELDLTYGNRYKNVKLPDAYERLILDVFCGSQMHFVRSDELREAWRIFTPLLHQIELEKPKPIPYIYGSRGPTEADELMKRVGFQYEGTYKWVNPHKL

Genome polyprotein, sequence (P29990 2492-3391 limits assumed): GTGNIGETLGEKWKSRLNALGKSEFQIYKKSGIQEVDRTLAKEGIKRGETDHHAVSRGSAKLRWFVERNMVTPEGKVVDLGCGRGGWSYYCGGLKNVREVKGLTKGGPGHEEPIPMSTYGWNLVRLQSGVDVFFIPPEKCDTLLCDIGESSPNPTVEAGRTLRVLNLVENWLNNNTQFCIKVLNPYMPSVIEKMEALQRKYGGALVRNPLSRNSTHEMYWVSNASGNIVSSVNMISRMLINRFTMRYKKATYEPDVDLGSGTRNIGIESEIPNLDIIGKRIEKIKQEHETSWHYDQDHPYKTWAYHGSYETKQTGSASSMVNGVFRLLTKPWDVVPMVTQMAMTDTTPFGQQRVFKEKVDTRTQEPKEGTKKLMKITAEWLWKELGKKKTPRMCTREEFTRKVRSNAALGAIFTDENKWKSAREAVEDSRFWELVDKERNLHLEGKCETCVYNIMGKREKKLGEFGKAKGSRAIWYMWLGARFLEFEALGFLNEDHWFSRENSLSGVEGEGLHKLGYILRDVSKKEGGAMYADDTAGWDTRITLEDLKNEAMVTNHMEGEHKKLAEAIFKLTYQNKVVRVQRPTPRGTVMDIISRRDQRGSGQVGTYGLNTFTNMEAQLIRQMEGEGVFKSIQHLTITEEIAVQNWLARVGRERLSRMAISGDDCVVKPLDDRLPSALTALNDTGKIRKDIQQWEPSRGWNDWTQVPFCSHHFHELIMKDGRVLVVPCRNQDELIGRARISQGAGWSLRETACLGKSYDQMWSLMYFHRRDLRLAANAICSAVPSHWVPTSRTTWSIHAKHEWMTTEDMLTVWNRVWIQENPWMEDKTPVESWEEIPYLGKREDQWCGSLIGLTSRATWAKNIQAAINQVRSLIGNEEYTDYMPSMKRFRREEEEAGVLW

SMILES	IC50 [2]	IC50 [3]	IC50 [4]	IC50 [5]	IC50 [6]	IC50 [7]	also measured
O=C(O)Cn1cc(C=C2C(=O)NC(=O)NC2=O)c2ccccc21	–	–	–	–	–	–	IC50 [1]: > 100 µM (active)
O=C(N=Nc1c(O)[nH]c2ccccc12)c1cccc(S(=O)(=O)Nc2ccccc2Cl)c1	> 88.8 µM (inactive)	> 49.8 µM (inactive)	1.01 µM (active)	> 49.8 µM (inactive)	> 66.2 µM (inactive)	> 50 µM (inactive)	–
N=C(NOC(=O)c1ccc2ccccc2c1)c1ccccc1Cl	–	–	–	–	–	–	EC50 [8]: 1.8 µM (active); AC50 [9]: 2.34 µM (active); EC50 [10]: 8.76 µM (active)
COc1c2ccoc2c(OCC=C(C)C)c2oc(=O)ccc12 [PHELLOPTERIN]	–	–	–	–	–	–	IC50 [11]: > 80 µM (inactive)
CC(C)(O)c1cc2ccc(C#Cc3ccsc3)cc2c(=O)o1	> 88.8 µM (inactive)	> 49.7 µM (inactive)	4.32 µM (active)	9.4 µM (active)	> 66.2 µM (inactive)	> 50 µM (inactive)	–
